Measured values reported in ChEMBL document CHEMBL1136342, “X-ray structures of two xanthine inhibitors bound to PEPCK and N-3 modifications of substituted 1,8-dibenzylxanthines” (Bioorg Med Chem Lett, 2003).

Tests used:
[1] = Inhibition of human phosphoenolpyruvate carboxykinase (PEPCK).
[2] = Binding affinity against phosphoenolpyruvate carboxykinase (PEPCK) using isothermal titration calorimetry(ITC)

| IC50 [1] | Ki [2] | Compound |
| --- | --- | --- |
| 2.11 µM | – | CCCCn1c(=O)n(Cc2ccccc2F)c(=O)c2[nH]c(Cc3ccc(NC(C)=O)cc3)nc21 |
| 2.85 µM | – | CC(=O)Nc1ccc(Cc2nc3c(=O)n(Cc4ccccc4F)c(=O)n(CCCCO)c3[nH]2)cc1 |
| 5.45 µM | – | CC(=O)Nc1ccc(Cc2nc3c(=O)n(Cc4ccccc4F)c(=O)n(CCCO)c3[nH]2)cc1 |
| 2 µM | – | CC(=O)Nc1ccc(Cc2nc3c(=O)n(Cc4ccccc4F)c(=O)n(CCC(=O)O)c3[nH]2)cc1 |
| 5.7 µM | – | CC(=O)Nc1ccc(Cc2nc3c(=O)n(Cc4ccccc4F)c(=O)n(CC4CCCO4)c3[nH]2)cc1 (stereo unspecified) |
| 2 µM | – | CC(=O)Nc1ccc(Cc2nc3c(=O)n(Cc4ccccc4F)c(=O)n(CC4CC4(CO)CO)c3[nH]2)cc1 (stereo unspecified) |
| 3.05 µM | – | CC(=O)Nc1ccc(Cc2nc3c(=O)n(Cc4ccccc4F)c(=O)n(CC4CCCC4)c3[nH]2)cc1 |
| 2.02 µM | – | CC(=O)Nc1ccc(Cc2nc3c([nH]2)c(=O)n(Cc2ccccc2F)c(=O)n3CC(C)C)cc1 |
| 1.49 µM | – | CCCn1c(=O)n(Cc2ccccc2F)c(=O)c2[nH]c(Cc3ccc(NC(C)=O)cc3)nc21 |
| 6.6 µM | – | CC(=O)Nc1ccc(Cc2nc3c(=O)n(Cc4ccccc4F)c(=O)n(CCCC(N)=O)c3[nH]2)cc1 |
| 4.5 µM | – | CC(=O)Nc1ccc(Cc2nc3c(=O)n(Cc4ccccc4F)c(=O)n(Cc4ccoc4)c3[nH]2)cc1 |
| 8.9 µM | – | CCCCCCn1c(=O)n(Cc2ccccc2F)c(=O)c2[nH]c(Cc3ccc(NC(C)=O)cc3)nc21 |
| 3 µM | – | COC(=O)[C@H]1CC1Cn1c(=O)n(Cc2ccccc2F)c(=O)c2[nH]c(Cc3ccc(NC(C)=O)cc3)nc21 (stereo partly specified) |
| 1.95 µM | 0.2 µM | CC(=O)Nc1ccc(Cc2nc3c(=O)n(Cc4ccccc4F)c(=O)n(CCCC(=O)O)c3[nH]2)cc1 |
| 2.27 µM | – | CC(=O)Nc1ccc(Cc2nc3c(=O)n(Cc4ccccc4F)c(=O)n(CC4C[C@@H]4CO)c3[nH]2)cc1 (stereo partly specified) |
| 0.69 µM | – | CC(=O)Nc1ccc(Cc2nc3c([nH]2)c(=O)n(Cc2ccccc2F)c(=O)n3CC2CC2)cc1 |
| 1.18 µM | – | CC(=O)Nc1ccc(Cc2nc3c(=O)n(Cc4ccccc4F)c(=O)n(CC4CCC4)c3[nH]2)cc1 |
| 1.82 µM | – | CC(=O)Nc1ccc(Cc2nc3c([nH]2)c(=O)n(Cc2ccccc2F)c(=O)n3CC2C[C@@H]2C)cc1 (stereo partly specified) |
| 4.5 µM | – | CC(=O)Nc1ccc(Cc2nc3c(=O)n(Cc4ccccc4F)c(=O)n(CC4CCCCO4)c3[nH]2)cc1 (stereo unspecified) |
| 0.56 µM | – | CC(=O)Nc1ccc(Cc2nc3c(=O)n(Cc4ccccc4F)c(=O)n(CC4C[C@@H]4C(=O)O)c3[nH]2)cc1 (stereo partly specified) |
